System: SREBP pathway
Test: SREBP luciferase reporter gene system (SRE-luciferase assay)
Assay type: cell-based, human
Settings: Homo sapiens, Huh-7, 16 h, Huh-7/SRE-luc cells, sterol-deficient medium, 0.01-10 µM
Protocol: Huh-7/SRE-luc cells were incubated in sterol-deficient medium (5% lipoprotein deficient serum, 2 µM lovastatin, 10 µM mevalonic acid) with corresponding concentrations of compounds for 16 hours. The Huh-7/SRE-luc cells were human hepatoma cell line Huh-7 stably expressing LDLR promotor-luciferase and green fluorescent protein (GFP). These cells were obtained by transfecting Huh-7 with pLDLR-promotor-luciferase and pEGFP-N1 plasmids, followed by screening under G418 antibiotic selection pressure. The Huh-7 cells were purchased from ATCC, the pLDLR-promotor-luciferase plasmid was obtained by molecular cloning methods, and the pEGFP-N1 plasmid was purchased from Addgene.
After compound treatment, the cells were lysed with lysis buffer (E397A, Promega). After the addition of luciferase substrate (E1500, Promega), the activity of SRE-driven luciferase was measured using a BioTek Synergy HTX microplate reader (including but not limited to this type of instrument). The fluorescence intensity of green fluorescent protein (EGFP) was also measured using the above BioTek microplate reader (including but not limited to this type of instrument) and served as an internal control. The ratio of SRE-driven luciferase activity divided by the fluorescence intensity of green fluorescent protein was used as an indicator of SREBP pathway activity. The test data for each test compound were analyzed using Prism software (with the DMSO-treated group as the reference to calculate the compound inhibition rate, fitted using the Prism log(inhibitor) vs. response--Variable slope (four-parameter) model, calculation formula: Y = Bottom + (Top - Bottom)/(1 + 10^((LogIC50 - X) × HillSlope))), to obtain the IC50 parameters of the compounds.
Using the method described in 1.1, the inhibitory effect of the compounds of the present disclosure on the SREBP pathway was tested. The concentration gradient for each compound was designed as 0.01, 0.03, 0.1, 0.3, 1.0, 3.0, and 10 µM, with the vehicle DMSO as the control.

SMILES	IC50 [µM]
C[C@H](CCC(=O)N(C)c1ccccc1F)[C@H]1CC[C@H]2[C@@H]3CC[C@H]4[C@@H](O)[C@@H](O)CC[C@]4(C)[C@H]3CC[C@]12C [Compound 47, (3S,4R,5R,8S,9S,10R,13R,14S,17R,20R)-N-(2-fluorophenyl)-3,4-dihydroxy-N-methyl-5α-cholan-24-amide]	0.05
C[C@H](CCC[C@H](O)c1cccc2cnn(C)c12)[C@H]1CC[C@H]2C3=C(F)C[C@H]4[C@@H](O)[C@@H](O)CC[C@]4(C)[C@H]3CC[C@]12C (single isomer, unassigned) [Compound 245]	0.159
C[C@H](CCC[C@@H](O)c1n[nH]c2ccccc12)[C@H]1CC[C@H]2[C@H]3[C@H](CC[C@]12C)[C@@]1(C)CC[C@H](O)[C@H](O)[C@@H]1CC3(F)F (stereo in doubt) [Compound 320, (1R,3aS,3bS,5aR,6R,7S,9aR,9bS,11aR)-4,4-difluoro-1-[(2R,6R)-6-hydroxy-6-(1H-indazol-3-yl)hexan-2-yl]-9a,11a-dimethylhexadecahydro-1H-cyclopenta[1,2-a]phenanthrene-6,7-diol]	0.207
COc1cc(F)c(C(O)CCC[C@@H](C)[C@H]2CC[C@H]3[C@H]4[C@H](CC[C@]23C)[C@@]2(C)CC[C@H](O)[C@H](O)[C@@H]2CC4(F)F)c(OC)c1 (stereo partly drawn) [Compound 182, (1R,3aS,3bS,5aR,6R,7 S,9aR,9bS,11aR)-4,4-Difluoro-1-[(2R)-6-(2-fluoro-4,6-dimethoxyphenyl)-6-hydroxyhexan-2-yl]-9a,11a-dimethylhexadecahydro-1H-cyclopenta[1,2-a]phenanthrene-6,7-diol]	0.121
C[C@H](CCC[C@H](O)c1ccccn1)[C@H]1CC[C@H]2[C@H]3[C@H](CC[C@]12C)[C@@]1(C)CC[C@H](O)[C@H](O)[C@@H]1CC3(F)F [Compound 91, (1R,3aS,3bS,5aR,6R,7S,9aR,9bS,11aR)-4,4-difluoro-1-[(2R,6S)-6-hydroxy-6-(pyridin-2-yl)hexan-2-yl]-9a,11a-dimethylhexadecahydro-1H-cyclopenta[1,2-a]phenanthrene-6,7-diol]	0.378
C[C@H](CCCC(O)c1ccncc1)[C@H]1CC[C@H]2[C@H]3[C@H](CC[C@]12C)[C@@]1(C)CC[C@H](O)[C@H](O)[C@@H]1CC3(F)F (stereo partly drawn) [Compound 76, (1R,3aS,3bS,5aR,6R,7S,9aR,9bS,11aR)-4,4-difluoro-1-[(2R)-6-hydroxy-6-(pyridin-4-yl)hexan-2-yl]-9a,11a-dimethylhexadecahydro-1H-cyclopenta[1,2-a]phenanthrene-6,7-diol]	0.9
C[C@H](CCC[C@H](O)c1ncc(F)cc1F)[C@H]1CC[C@H]2[C@H]3[C@H](CC[C@]12C)[C@@]1(C)CC[C@H](O)[C@H](O)[C@@H]1CC3(F)F (single isomer, unassigned) [Compound 279]	0.202
COc1nc(C)ccc1C(O)CCC[C@@H](C)[C@H]1CC[C@H]2[C@H]3[C@H](CC[C@]12C)[C@@]1(C)CC[C@H](O)[C@H](O)[C@@H]1CC3(F)F (single isomer, unassigned) [Compound 217, (1R,3aS,3bS,5aR,6R,7S,9aR,9bS,11aR)-4,4-difluoro-1-[(2R,6S)-6-hydroxy-6-(2-methoxy-6-methylpyridin-3-yl)hexan-2-yl]-9a,11a-dimethylhexadecahydro-1H-cyclopenta[1,2-a]phenanthrene-6,7-diol or (1R,3aS,3bS,5aR,6R,7S,9aR,9bS,11aR)-4,4-difluoro-1-[(2R,6R)-6-hydroxy-6-(2-methoxy-6-methylpyridin-3-yl)hexan-2-yl]-9a,11a-dimethylhexadecahydro-1H-cyclopenta[1,2-a]phenanthrene-6,7-diol]	0.21
COc1ccccc1C(CCC[C@@H](C)[C@H]1CC[C@H]2[C@@H]3CC[C@H]4[C@@H](O)[C@@H](O)CC[C@]4(C)[C@H]3CC[C@]12C)OC (stereo partly drawn) [Compound 22, 24-[methoxy(2-methoxyphenyl)methyl]-5α-cholane-3β,4β-diol]	2.01
COc1ccc(C(O)CCC[C@@H](C)[C@H]2CC[C@H]3C4=C(F)C[C@H]5[C@@H](O)[C@@H](O)CC[C@]5(C)[C@H]4CC[C@]23C)cc1 (stereo partly drawn) [Compound 51, (1R,3aR,5aR,6R,7S,9aR,9bR,11aR)-4-fluoro-1-[(2R)-6-hydroxy-6-(4-methoxyphenyl)hexan-2-yl]-9a,11a-dimethyl-2,3,3a,5,5a,6,7,8,9,9a,9b,10,11,11a-tetradecahydro-1H-cyclopenta[1,2-a]phenanthrene-6,7-diol]	0.212
COc1cc(F)cc(F)c1[C@@H](O)CCC[C@@H](C)[C@H]1CC[C@H]2C3=C(F)C[C@H]4[C@@H](O)[C@@H](O)CC[C@]4(C)[C@H]3CC[C@]12C (single isomer, unassigned) [Compound 202]	0.411
C[C@H](CCCC(O)c1ccc(F)nc1OCc1ccccc1)[C@H]1CC[C@H]2[C@H]3[C@H](CC[C@]12C)[C@@]1(C)CC[C@H](O)[C@H](O)[C@@H]1CC3(F)F (stereo partly drawn) [Compound 281, (1R,3aS,3bS,5aR,6R,7S,9aR,9bS,11aR)-1-[(2R)-6-[2-(benzyloxy)-6-fluoropyridin-3-yl]-6-hydroxyhexan-2-yl]-4,4-difluoro-9a,11a-dimethylhexadecahydro-1H-cyclopenta[1,2-a]phenanthrene-6,7-diol]	0.479
C[C@H](CCC1CC(=NO)C1)[C@H]1CC[C@H]2[C@@H]3CC[C@H]4C[C@@H](O)CC[C@]4(C)[C@H]3CC[C@]12C (stereo partly drawn) [Compound 135, {3-[(3R)-3-[(1R,3aS,3bR,5aS,7S,9aS,9bS,11aR)-7-hydroxy-9a,11a-dimethylhexadecahydro-1H-cyclopenta[1,2-a]phenanthren-1-yl]butyl]cyclobutylidene}hydroxylamine]	4.03
C[C@H](CCCC(O)c1ccc(F)nc1OCC1COC1)[C@H]1CC[C@H]2[C@H]3[C@H](CC[C@]12C)[C@@]1(C)CC[C@H](O)[C@H](O)[C@@H]1CC3(F)F (stereo partly drawn) [Compound 383, (1R,3aS,3bS,5aR,6R,7S,9aR,9bS,11aR)-4,4-difluoro-1-[(2R)-6-{6-fluoro-2-[(oxetan-3-ylmethyl)oxy]pyridin-3-yl}-6-hydroxyhexan-2-yl]-9a,11a-dimethylhexadecahydro-1H-cyclopenta[1,2-a]phenanthrene-6,7-diol]	0.041
COc1ccc(C(O)CCC[C@@H](C)[C@H]2CC[C@H]3[C@H]4[C@H](CC[C@]23C)[C@@]2(C)CC[C@H](O)[C@H](O)[C@@H]2CC4(F)F)c(OC)c1 (stereo partly drawn) [Compound 183, (1R,3aS,3bS,5aR,6R,7 S,9aR,9bS,11aR)-1-[(2R)-6-(2,4-Dimethoxyphenyl)-6-hydroxyhexan-2-yl]-4,4-difluoro-9a,11a-dimethylhexadecahydro-1H-cyclopenta[1,2-a]phenanthrene-6,7-diol]	0.141
C[C@H](CCCC(O)c1cccc2nn[nH]c12)[C@H]1CC[C@H]2[C@H]3[C@H](CC[C@]12C)[C@@]1(C)CC[C@H](O)[C@H](O)[C@@H]1CC3(F)F (single isomer, unassigned) [Compound 294, (1R,3aS,3bS,5aR,6R,7S,9aR,9bS,11aR)-4,4-difluoro-1-[(2R,6S)-6-hydroxy-6-(3H-benzo[d][1,2,3]triazol-4-yl)hexan-2-yl]-9a,11a-dimethylhexadecahydro-1H-cyclopenta[1,2-a]phenanthrene-6,7-diol or (1R,3aS,3bS,5aR,6R,7S,9aR,9bS,11aR)-4,4-difluoro-1-[(2R,6R)-6-hydroxy-6-(3H-benzo[d][1,2,3]triazol-4-yl)hexan-2-yl]-9a,11a-dimethylhexadecahydro-1H-cyclopenta[1,2-a]phenanthrene-6,7-diol]	0.424

Same assay, conditions: Huh-7/SRE-luc cells, sterol-deficient medium, 16 hours, 0.01-10 µM

SMILES	IC50 [µM]
COc1ccnc(OC)c1C(O)CCC[C@@H](C)[C@H]1CC[C@H]2[C@H]3[C@H](CC[C@]12C)[C@@]1(C)CC[C@H](O)[C@H](O)[C@@H]1CC3(F)F (single isomer, unassigned) [Compound 172, (1R,3aS,3bS,5aR,6R,7S,9aR,9bS,11aR)-1-[(2R,6R)-6-(2,4-dimethoxypyridin-3-yl)-6-hydroxyhexan-2-yl]-4,4-difluoro-9a,11a-dimethylhexadecahydro-1H-cyclopenta[1,2-a]phenanthrene-6,7-diol or (1R,3aS,3bS,5aR,6R,7S,9aR,9bS,11aR)-1-[(2R,6S)-6-(2,4-dimethoxypyridin-3-yl)-6-hydroxyhexan-2-yl]-4,4-difluoro-9a,11a-dimethylhexadecahydro-1H-cyclopenta[1,2-a]phenanthrene-6,7-diol]	0.113
COc1ccc(C(O)CCC[C@@H](C)[C@H]2CC[C@H]3[C@H]4[C@H](CC[C@]23C)[C@@]2(C)CC[C@H](O)[C@H](O)[C@@H]2CC4(F)F)c(F)n1 (single isomer, unassigned) [Compound 242, (1R,3aS,3bS,5aR,6R,7S,9aR,9bS,11aR)-4,4-difluoro-1-[(2R,6S)-6-(2-fluoro-6-methoxypyridin-3-yl)-6-hydroxyhexan-2-yl]-9a,11a-dimethylhexadecahydro-1H-cyclopenta[1,2-a]phenanthrene-6,7-diol or (1R,3aS,3bS,5aR,6R,7S,9aR,9bS,11aR)-4,4-difluoro-1-[(2R,6R)-6-(2-fluoro-6-methoxypyridin-3-yl)-6-hydroxyhexan-2-yl]-9a,11a-dimethylhexadecahydro-1H-cyclopenta[1,2-a]phenanthrene-6,7-diol]	0.205
